Assay results taken from patent publication EP0838465A1, “Pyridinium-substituted (lactamylvinyl)cephalosporin derivatives, their preparation and their use as antibiotics” (F. HOFFMANN-LA ROCHE AG, priority 1996, dated 1998).
In brackets after ≈: the same amount, converted by molar mass.

Tests used:
S.aureus 6538 (MSSA) = assay: In vitro activity, minimum inhibitory concentration by agar dilution method in Mueller Hinton agar; assay type: cell-based; conditions: Staphylococcus aureus, agar dilution method on Mueller-Hinton agar, inoculum 10^4 CFU/spot
Protocol: (§1) In vitro activity was determined by minimum inhibitory concentration in a microorganism spectum by the agar dilution method in Mueller Hinton agar.
(§2) The antibacterial Spectrum appears below: • MIC : Minimum Inhibiting Concentration Values

S.aureus 42080 (MRSA) = assay: as above; assay type: cell-based; conditions: Staphylococcus aureus, agar dilution method on Mueller-Hinton agar, inoculum 10^4 CFU/spot
Protocol: as §1, §2

MRSA (n=17) = assay: In vitro activity, MIC90 by agar dilution method in Mueller Hinton agar; assay type: cell-based, S. aureus; conditions: Staphylococcus aureus, agar dilution method on Mueller-Hinton agar, inoculum 10^5 CFU/spot
Protocol: as §1, §2

MIC (S.aureus 6538 (MSSA)) [µg/mL] | MIC (S.aureus 42080 (MRSA)) [µg/mL] | MIC90 (MRSA (n=17)) [µg/mL] | Compound
0.5 (≈ 0.692 µM) | 4 (≈ 5.53 µM) | 8 (≈ 11.1 µM) | Nc1nc(/C(=N/O)C(=O)N[C@@H]2C(=O)N3C(C(=O)[O-])=C(/C=C4\CCN(Cc5ccc[n+](CC(=O)Nc6ccc(O)c(F)c6)c5)C4=O)CS[C@H]23)cs1 [G, (6R,7R)-7-[(Z)-2-(2-Amino-thiazol-4-yl)-2-hydroxyimino-acetylamino]-3-[(E)-1-[1-[(3-fluoro-4-hydroxy-phenylcarbamoyl)-methyl]-pyridin-1-ium-3-ylmethyl]-2-oxo-pyrrolidin-3-ylidenemethyl]-8-oxo-5-thia-1-aza-bicyclo[4.2.0]oct-2-ene-2-carboxylate]
1 (≈ 1.36 µM) | 8 (≈ 10.9 µM) | 8 (≈ 10.9 µM) | COc1cc(NC(=O)C[n+]2ccc(CN3CC/C(=C\C4=C(C(=O)[O-])N5C(=O)[C@@H](NC(=O)/C(=N\O)c6csc(N)n6)[C@H]5SC4)C3=O)cc2)ccc1O [F, (6R,7R)-7-[(Z)-2-(2-Amino-thiazol-4-yl)-2-hydroxyimino-acetylamino]-3-[(E)-1-[1-[(4-hydroxy-3-methoxy-phenylcarbamoyl)-methyl]-pyridin-1-ium-4-ylmethyl]-2-oxo-pyrrolidin-3-ylidenemethyl]-8-oxo-5-thia-1-aza-bicyclo[4.2.0]oct-2-ene-2-carboxylate]
0.5 (≈ 0.676 µM) | 4 (≈ 5.41 µM) | 8 (≈ 10.8 µM) | Nc1nc(/C(=N/O)C(=O)N[C@@H]2C(=O)N3C(C(=O)[O-])=C(/C=C4\CCN(Cc5cc[n+](CC(=O)Nc6ccc(O)c(Cl)c6)cc5)C4=O)CS[C@H]23)cs1 [E, (6R,7R)-7-[(Z)-2-(2-Amino-thiazol-4-yl)-2-hydroxyimino-acetylamino]-3-[(E)-1-[1-[(3-chloro-4-hydroxy-phenylcarbamoyl)-methyl]-pyridin-1-ium-4-ylmethyl]-2-oxo-pyrrolidin-3-ylidenemethyl]-8-oxo-5-thia-1-aza-bicyclo[4.2.0]oct-2-ene-2-carboxylate]

The remaining lines, values behind:

Compound | MIC (S.aureus 6538 (MSSA)) [µg/mL] | MIC (S.aureus 42080 (MRSA)) [µg/mL] | MIC90 (MRSA (n=17)) [µg/mL]
Nc1nc(/C(=N/O)C(=O)N[C@@H]2C(=O)N3C(C(=O)[O-])=C(/C=C4\CCN(Cc5cc[n+](CC(=O)Nc6ccc(O)cc6)cc5)C4=O)CS[C@H]23)cs1 [A, (6R,7R)-7-[(Z)-2-(2-Amino-thiazol-4-yl)-2-hydroxyimino-acetylamino]-3-[(E)-1-[1-[(4-hydroxy-phenylcarbamoyl)-methyl]-pyridin-1-ium-4-ylmethyl]-2-oxo-pyrrolidin-3-ylidenemethyl]-8-oxo-5-thia-1-aza-bicyclo[4.2.0]oct-2-ene-2-carboxylate] | 0.5 (≈ 0.709 µM) | 4 (≈ 5.68 µM) | 8 (≈ 11.4 µM)
Nc1nc(/C(=N/O)C(=O)N[C@@H]2C(=O)N3C(C(=O)[O-])=C(/C=C4\CCN(Cc5cc[n+](CC(=O)Nc6ccc(O)c(F)c6)cc5)C4=O)CS[C@H]23)ns1 [D, (6R,7R)-7-[(Z)-2-(5-Amino-[1,2,4]thiadiazol-3-yl)-2-hydroxyimino-acetylamino]-3-[(E)-1-[1-[(3-fluoro-4-hydroxy-phenylcarbamoyl)-methyl]-pyridin-1-ium-4-ylmethyl]-2-oxo-pyrrolidin-3-ylidenemethyl]-8-oxo-5-thia-1-aza-bicyclo[4.2.0]oct-2-ene-2-carboxylate] | 1 (≈ 1.38 µM) | 4 (≈ 5.53 µM) | 4 (≈ 5.53 µM)
Nc1nc(/C(=N/O)C(=O)N[C@@H]2C(=O)N3C(C(=O)[O-])=C(/C=C4\CCN(Cc5cc[n+](CC(=O)Nc6ccc(O)cc6)cc5)C4=O)CS[C@H]23)ns1 [B, (6R,7R)-7-[(Z)-2-(5-Amino-[1,2,4]thiadiazol-3-yl)-2-hydroxyimino-acetylamino]-3-[(E)-1-[1-[(4-hydroxy-phenylcarbamoyl)-methyl]-pyridin-1-ium-4-ylmethyl]-2-oxo-pyrrolidin-3-ylidenemethyl]-8-oxo-5-thia-1-aza-bicyclo[4.2.0]-oct-2-ene-2-carboxylate] | 0.5 (≈ 0.708 µM) | 4 (≈ 5.67 µM) | 4 (≈ 5.67 µM)
Nc1nc(/C(=N/O)C(=O)N[C@@H]2C(=O)N3C(C(=O)[O-])=C(/C=C4\CCN(Cc5cc[n+](CC(=O)Nc6ccc(O)c(F)c6)cc5)C4=O)CS[C@H]23)cs1 [C, (6R,7R)-7-[(Z)-2-(2-Amino-thiazol-4-yl)-2-hydroxyimino-acetylamino]-3-[(E)-1-[1-[(3-fluoro-4-hydroxy-phenylcarbamoyl)-methyl]-pyridin-1-ium-4-ylmethyl]-2-oxo-pyrrolidin-3-ylidenemethyl]-8-oxo-5-thia-1-aza-bicyclo[4.2.0]oct-2-ene-2-carboxylate] | 1 (≈ 1.38 µM) | 4 (≈ 5.53 µM) | 4 (≈ 5.53 µM)
